ChEMBL document CHEMBL3286318, “Design and synthesis of quinolinopropellane derivatives with selective δ opioid receptor agonism” (Bioorg Med Chem Lett, 2014)

How the values were obtained:
[1] = target: T1, Kappa-type opioid receptor (Homo sapiens, UniProt P41145); test: Displacement of [3H]U-69593 from kappa-opioid receptor (unknown origin)
[2] = target: T2, Mu-type opioid receptor (Homo sapiens, UniProt P35372); test: Agonist activity at mu-opioid receptor (unknown origin) by [35S]GTPgammaS binding assay; type: functional
[3] = target: T3, Delta-type opioid receptor (Homo sapiens, UniProt P41143); test: Agonist activity at delta-opioid receptor (unknown origin) by [35S]GTPgammaS binding assay; type: functional
[4] = target: T1, Kappa-type opioid receptor; test: Agonist activity at kappa-opioid receptor (unknown origin) by [35S]GTPgammaS binding assay
[5] = species on record: Homo sapiens; test: Selectivity ratio Ki for kappa-opioid receptor (unknown origin) to Ki for delta-opioid receptor (unknown origin)
[6] = target: T3, Delta-type opioid receptor; test: Displacement of [3H]DPDPE from delta-opioid receptor (unknown origin)
[7] = target: T2, Mu-type opioid receptor; test: Displacement of [3H]DAMGO from mu-opioid receptor (unknown origin)
[8] = species on record: Homo sapiens; test: Selectivity ratio Ki for mu-opioid receptor (unknown origin) to Ki for delta-opioid receptor (unknown origin)

T2 sequence (P35372 whole entry): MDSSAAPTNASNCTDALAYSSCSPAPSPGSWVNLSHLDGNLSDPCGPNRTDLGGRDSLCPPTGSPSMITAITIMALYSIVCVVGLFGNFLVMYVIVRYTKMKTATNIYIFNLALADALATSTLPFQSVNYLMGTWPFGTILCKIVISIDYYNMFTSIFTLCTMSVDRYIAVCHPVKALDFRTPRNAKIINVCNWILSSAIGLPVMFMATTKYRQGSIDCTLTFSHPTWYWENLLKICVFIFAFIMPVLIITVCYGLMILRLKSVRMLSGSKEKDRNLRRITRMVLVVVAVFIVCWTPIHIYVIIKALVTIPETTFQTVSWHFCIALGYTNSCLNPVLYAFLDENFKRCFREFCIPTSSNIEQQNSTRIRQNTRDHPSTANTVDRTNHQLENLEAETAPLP
T3 sequence (P41143 whole entry): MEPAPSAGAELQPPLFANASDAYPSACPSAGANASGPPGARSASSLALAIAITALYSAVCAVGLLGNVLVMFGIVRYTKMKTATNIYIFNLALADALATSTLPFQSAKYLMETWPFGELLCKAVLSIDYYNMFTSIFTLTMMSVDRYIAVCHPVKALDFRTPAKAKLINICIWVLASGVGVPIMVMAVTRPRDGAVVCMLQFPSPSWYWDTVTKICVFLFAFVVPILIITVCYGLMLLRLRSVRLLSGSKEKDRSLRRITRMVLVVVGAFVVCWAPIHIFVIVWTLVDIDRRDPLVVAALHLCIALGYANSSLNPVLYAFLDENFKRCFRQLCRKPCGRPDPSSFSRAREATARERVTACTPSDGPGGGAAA
T1 sequence (P41145 whole entry): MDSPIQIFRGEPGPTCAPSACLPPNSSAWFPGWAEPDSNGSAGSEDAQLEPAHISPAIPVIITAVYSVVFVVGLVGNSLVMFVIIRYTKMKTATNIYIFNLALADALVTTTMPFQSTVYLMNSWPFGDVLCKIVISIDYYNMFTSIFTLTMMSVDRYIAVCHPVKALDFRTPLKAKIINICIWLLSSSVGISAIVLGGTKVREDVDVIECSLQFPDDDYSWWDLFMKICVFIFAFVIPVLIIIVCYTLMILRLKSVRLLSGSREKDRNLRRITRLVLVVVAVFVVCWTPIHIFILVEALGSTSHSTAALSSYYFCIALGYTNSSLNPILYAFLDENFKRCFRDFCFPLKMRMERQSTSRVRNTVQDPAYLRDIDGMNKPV

Oc1ccc2c(c1)[C@]13CCN(CC4CC4)C[C@@]1(C2)Cc1cc2ccccc2nc1C3
Ki [1]: 84.6 nM
EC50 [2]: 197 nM
Emax [2]: 56%
EC50 [3]: 2.5 nM
Emax [3]: 88%
EC50 [4]: 836 nM
Ratio Ki [5]: 89.9
Ki [6]: 0.941 nM
Ki [7]: 112 nM
Ratio Ki [8]: 119

CN1CC[C@]23Cc4nc5ccccc5cc4C[C@]2(Cc2ccc(O)cc23)C1
Ki [1]: 195 nM
Ratio Ki [5]: 104
Ki [6]: 1.88 nM
Ki [7]: 3.06 nM
Ratio Ki [8]: 1.63

Oc1ccc2c(c1)[C@]13CCN(CC4(O)CC4)C[C@@]1(C2)Cc1cc2ccccc2nc1C3
Ki [1]: 879 nM
Ratio Ki [5]: 801
Ki [6]: 1.1 nM
Ki [7]: 415 nM
Ratio Ki [8]: 378

O=C1CC[C@@]23Cc4ccc(O)cc4[C@@]2(CCN(CC2CC2)C3)C1
Ki [1]: 17.4 nM
Ki [6]: 448 nM
Ki [7]: 58.2 nM

Oc1ccc2c(c1)[C@]13CCN(Cc4ccccc4)C[C@@]1(C2)Cc1cc2ccccc2nc1C3
Ki [1]: 594 nM
Ratio Ki [5]: 18.8
Ki [6]: 31.6 nM
Ki [7]: 76.3 nM
Ratio Ki [8]: 2.42
